target: Human immunodeficiency virus type 1 integrase (Human immunodeficiency virus 1, UniProt Q7ZJM1); assay: Inhibition of HIV1 integrase strand transfer activity
Sequence (Q7ZJM1 whole entry): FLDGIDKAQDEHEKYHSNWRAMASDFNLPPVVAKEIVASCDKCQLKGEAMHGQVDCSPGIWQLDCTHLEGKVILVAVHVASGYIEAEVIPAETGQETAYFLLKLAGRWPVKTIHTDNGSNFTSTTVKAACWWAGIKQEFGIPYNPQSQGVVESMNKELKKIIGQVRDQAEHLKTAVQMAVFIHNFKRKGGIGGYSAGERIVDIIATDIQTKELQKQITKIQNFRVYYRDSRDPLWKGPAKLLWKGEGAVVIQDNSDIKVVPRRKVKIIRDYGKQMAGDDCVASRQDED

Compared with `O=C(NCn1ccnc1)c1nc(-c2cccs2)nc(O)c1O`, `O=C(NCn1cncn1)c1nc(-c2cccs2)nc(O)c1O` is 2.9-fold higher in IC50: 17000 nM for the first, 50100 nM for the second. The first is the more potent here.

Compared with `O=C(NCc1cncs1)c1nc(-c2cccs2)nc(O)c1O`, `O=C(NCc1cccs1)c1nc(-c2cccs2)nc(O)c1O` is 25-fold lower in IC50: 2510 nM for the first, 100 nM for the second.

Going from `O=C(Nc1ccc2ccccc2c1)c1nc(-c2cccs2)nc(O)c1O` to `O=C(Nc1cccc2ccccc12)c1nc(-c2cccs2)nc(O)c1O`, the IC50 rises from 30.2 nM to 214 nM (7.1-fold). The first is the more potent here.

Going from `O=C(NCc1cc2ccccc2s1)c1nc(-c2cccs2)nc(O)c1O` to `O=C(NCc1csc2ccccc12)c1nc(-c2cccs2)nc(O)c1O`, the IC50 rises from 10 nM to 50.1 nM (5-fold).

`O=C(NCc1nccs1)c1nc(-c2cccs2)nc(O)c1O` and `O=C(NCc1ccccc1F)c1nc(-c2cccs2)nc(O)c1O` are within 1.5-fold of each other in IC50: 200 nM for the first, 162 nM for the second.

First: COc1ccccc1CNC(=O)c1nc(-c2cccs2)nc(O)c1O
Second: O=C(N[C@@H]1CCc2ccccc21)c1nc(-c2cccs2)nc(O)c1O
The IC50 of the first is 4.6-fold higher: 91.2 nM for the first, 20 nM for the second. The second is the more potent here.

Compared with `O=C(NCC1CCCCC1)c1nc(-c2cccs2)nc(O)c1O`, `O=C(N[C@H]1CCc2ccccc21)c1nc(-c2cccs2)nc(O)c1O` is 62-fold higher in IC50: 10 nM for the first, 617 nM for the second. The first is the more potent here.

From ChEMBL document CHEMBL1153757, “Multivariate QSAR study of 4,5-dihydroxypyrimidine carboxamides as HIV-1 integrase inhibitors” (Eur J Med Chem, 2009)
